Experimental data: patent US10336792B2, “Antimicrobial peptide dendrimers” (priority 2014, dated 2019)
Converted amounts (≈) assume the structure as drawn. Positions of bridges follow the written chain, without caps; N, C: chain ends. Non-standard residues stand in square brackets, D forms with d. Residues, ends and D or L forms follow the SMILES beside them. Groups on a side chain read outwards from the residue. Chains are numbered I, II in the order given. *: point of attachment. Dab = NCC[C@H](N)C(=O)O; Hexanoyl = CCCCCC(=O)*

What was measured:
Assay type in all cases: cell-based
[1] = system: Pseudomonas aeruginosa (strain PA01); assay: microbe, parasite or virus in culture; settings: strain
How it was run: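 P. aeruginosa PAO1 grown overnight in LB, diluted to OD600 0.001 and mixed with ⅔-step peptide dilutions, then incubated at 37 °C for 18–24 h. After MTT staining, the lowest concentration with no visible growth was read by eye as the MIC.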

[2] = system: Bacillus subtilis (strain BR151); settings: strain BR151
How it was run: (§1)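 Broth microdilution MIC in LB; overnight cultures diluted to OD600 0.001 and mixed 1:1 with ⅔-serially diluted samples (stock 1 mg mL^−1 in H2O), 37° C for 18-24 h. MTT (0.1%) added; MIC read by eye as lowest concentration inhibiting visible growth (yellow).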

[3] = system: Escherichia coli (strain DH5α); settings: DH5α
How it was run: as §1

Compound | MIC P. aeruginosa PAO1 [1] | MIC B. subtilis BR151 [2] | MIC E. coli DH5α [3]
NCCCC[C@H](NC(=O)[C@H](CCCCNC(=O)[C@H](Cc1c[nH]c2ccccc12)NC(=O)[C@H](CCCCN)NC(=O)[C@H](CCCCNC(=O)[C@H](Cc1c[nH]c2ccccc12)NC(=O)[C@H](CCCCN)NC(=O)[C@H](CCCCNC(=O)[C@H](Cc1c[nH]c2ccccc12)NC(=O)[C@@H](N)CCCCN)NC(=O)[C@H](Cc1c[nH]c2ccccc12)NC(=O)[C@@H](N)CCCCN)NC(=O)[C@H](Cc1c[nH]c2ccccc12)NC(=O)[C@H](CCCCN)NC(=O)[C@H](CCCCNC(=O)[C@H](Cc1c[nH]c2ccccc12)NC(=O)[C@@H](N)CCCCN)NC(=O)[C@H](Cc1c[nH]c2ccccc12)NC(=O)[C@@H](N)CCCCN)NC(=O)[C@H](Cc1c[nH]c2ccccc12)NC(=O)[C@H](CCCCN)NC(=O)[C@H](CCCCNC(=O)[C@H](Cc1c[nH]c2ccccc12)NC(=O)[C@H](CCCCN)NC(=O)[C@H](CCCCNC(=O)[C@H](Cc1c[nH]c2ccccc12)NC(=O)[C@@H](N)CCCCN)NC(=O)[C@H](Cc1c[nH]c2ccccc12)NC(=O)[C@@H](N)CCCCN)NC(=O)[C@H](Cc1c[nH]c2ccccc12)NC(=O)[C@H](CCCCN)NC(=O)[C@H](CCCCNC(=O)[C@H](Cc1c[nH]c2ccccc12)NC(=O)[C@@H](N)CCCCN)NC(=O)[C@H](Cc1c[nH]c2ccccc12)NC(=O)[C@@H](N)CCCCN)C(=O)N[C@@H](Cc1c[nH]c2ccccc12)C(N)=O [MSt-172, (KW)8(KKW)4(KKW)2(KKW)] (I: H-KWK([Trp-Lys])KWKKWKKW-NH2 / II: H-KWK([Trp-Lys])KWKKW / III: H-KWK([Trp-Lys])KW / IV: H-KWK([Trp-Lys])KW; amide I:6-IV:C, I:9-II:C, II:6-III:C; N-terminus assumed) | 12 mg/L (≈ 2.13 µM) | 6 mg/L (≈ 1.07 µM) | 7 mg/L (≈ 1.24 µM)
CC(C)C[C@H](NC(=O)[C@H](CCN)NC(=O)[C@H](CCCCNC(=O)[C@H](Cc1c[nH]c2ccccc12)NC(=O)[C@H](CCN)NC(=O)[C@H](CCCCNC(=O)[C@H](CC(C)C)NC(=O)[C@@H](N)CCN)NC(=O)[C@H](CC(C)C)NC(=O)[C@@H](N)CCN)NC(=O)[C@H](Cc1c[nH]c2ccccc12)NC(=O)[C@H](CCN)NC(=O)[C@H](CCCCNC(=O)[C@H](CC(C)C)NC(=O)[C@@H](N)CCN)NC(=O)[C@H](CC(C)C)NC(=O)[C@@H](N)CCN)C(=O)NCCCC[C@H](NC(=O)[C@H](CC(C)C)NC(=O)[C@H](CCN)NC(=O)[C@H](CCCCNC(=O)[C@H](Cc1c[nH]c2ccccc12)NC(=O)[C@H](CCN)NC(=O)[C@H](CCCCNC(=O)[C@H](CC(C)C)NC(=O)[C@@H](N)CCN)NC(=O)[C@H](CC(C)C)NC(=O)[C@@H](N)CCN)NC(=O)[C@H](Cc1c[nH]c2ccccc12)NC(=O)[C@H](CCN)NC(=O)[C@H](CCCCNC(=O)[C@H](CC(C)C)NC(=O)[C@@H](N)CCN)NC(=O)[C@H](CC(C)C)NC(=O)[C@@H](N)CCN)C(=O)N[C@@H](CCN)C(=O)N[C@@H](Cc1c[nH]c2ccccc12)C(N)=O [MSt-202, (DabL)8(KDabW)4(KDabL)2(KDabW)] (I: H-[Dab]LK([Leu-Dab])[Dab]WK[Dab]LK[Dab]W-NH2 / II: H-[Dab]LK([Leu-Dab])[Dab]WK[Dab]L / III: H-[Dab]LK([Leu-Dab])[Dab]W / IV: H-[Dab]LK([Leu-Dab])[Dab]W; amide I:6-IV:C, I:9-II:C, II:6-III:C; N-terminus assumed) | 2 mg/L (≈ 0.447 µM) | 1 mg/L (≈ 0.223 µM) | 1 mg/L (≈ 0.223 µM)
CCCCCC(=O)N[C@@H](CCCCN)C(=O)N[C@@H](CC(C)C)C(=O)NCCCC[C@H](NC(=O)[C@H](CC(C)C)NC(=O)[C@H](CCCCN)NC(=O)CCCCC)C(=O)N[C@@H](CCCCN)C(=O)N[C@@H](CC(C)C)C(=O)NCCCC[C@H](NC(=O)[C@H](CC(C)C)NC(=O)[C@H](CCCCN)NC(=O)[C@H](CCCCNC(=O)[C@H](CC(C)C)NC(=O)[C@H](CCCCN)NC(=O)CCCCC)NC(=O)[C@H](CC(C)C)NC(=O)[C@H](CCCCN)NC(=O)CCCCC)C(=O)N[C@@H](CCCCN)C(=O)N[C@@H](CC(C)C)C(=O)NCCCC[C@H](NC(=O)[C@H](CC(C)C)NC(=O)[C@H](CCCCN)NC(=O)[C@H](CCCCNC(=O)[C@H](CC(C)C)NC(=O)[C@H](CCCCN)NC(=O)[C@H](CCCCNC(=O)[C@H](CC(C)C)NC(=O)[C@H](CCCCN)NC(=O)CCCCC)NC(=O)[C@H](CC(C)C)NC(=O)[C@H](CCCCN)NC(=O)CCCCC)NC(=O)[C@H](CC(C)C)NC(=O)[C@H](CCCCN)NC(=O)[C@H](CCCCNC(=O)[C@H](CC(C)C)NC(=O)[C@H](CCCCN)NC(=O)CCCCC)NC(=O)[C@H](CC(C)C)NC(=O)[C@H](CCCCN)NC(=O)CCCCC)C(=O)N[C@@H](CCCCN)C(=O)N[C@@H](CC(C)C)C(N)=O [MSt-288, (C6KL)8(KKL)4(KKL)2(KKL)] (I: Hexanoyl-KLK([Leu-Lys-Hexanoyl])KLKKLKKL-NH2 / II: Hexanoyl-KLK([Leu-Lys-Hexanoyl])KLKKL / III: Hexanoyl-KLK([Leu-Lys-Hexanoyl])KL / IV: Hexanoyl-KLK([Leu-Lys-Hexanoyl])KL; amide I:6-IV:C, I:9-II:C, II:6-III:C) | 2 mg/L (≈ 0.376 µM) | 1 mg/L (≈ 0.188 µM) | 5 mg/L (≈ 0.94 µM)
CC(C)C[C@H](NC(=O)[C@H](CC(C)C)NC(=O)[C@H](CCCCNC(=O)[C@H](CCCCN)NC(=O)[C@H](CCCCN)NC(=O)[C@H](CCCCNC(=O)[C@H](CC(C)C)NC(=O)[C@@H](N)CC(C)C)NC(=O)[C@H](CC(C)C)NC(=O)[C@@H](N)CC(C)C)NC(=O)[C@H](CCCCN)NC(=O)[C@H](CCCCN)NC(=O)[C@H](CCCCNC(=O)[C@H](CC(C)C)NC(=O)[C@@H](N)CC(C)C)NC(=O)[C@H](CC(C)C)NC(=O)[C@@H](N)CC(C)C)C(=O)NCCCC[C@H](NC(=O)[C@H](CC(C)C)NC(=O)[C@H](CC(C)C)NC(=O)[C@H](CCCCNC(=O)[C@H](CCCCN)NC(=O)[C@H](CCCCN)NC(=O)[C@H](CCCCNC(=O)[C@H](CC(C)C)NC(=O)[C@@H](N)CC(C)C)NC(=O)[C@H](CC(C)C)NC(=O)[C@@H](N)CC(C)C)NC(=O)[C@H](CCCCN)NC(=O)[C@H](CCCCN)NC(=O)[C@H](CCCCNC(=O)[C@H](CC(C)C)NC(=O)[C@@H](N)CC(C)C)NC(=O)[C@H](CC(C)C)NC(=O)[C@@H](N)CC(C)C)C(=O)N[C@@H](CCCCN)C(=O)N[C@@H](CCCCN)C(N)=O [MSt-180, (LL)8(KKK)4(KLL)2(KKK)] (I: H-LLK([Leu-Leu])KKKLLKKK-NH2 / II: H-LLK([Leu-Leu])KKKLL / III: H-LLK([Leu-Leu])KK / IV: H-LLK([Leu-Leu])KK; amide I:6-IV:C, I:9-II:C, II:6-III:C) | 12 mg/L (≈ 2.69 µM) | 3 mg/L (≈ 0.673 µM) | >62 mg/L
